Values after ≈ are worked out from the molar mass of the structure shown. Values joined by “and” are separate entries in the source; they are usually repeats but may differ in a detail not shown here. Equal entries are not always repeated.
How the values were obtained:
[1] = test system: Pseudomonas aeruginosa BAA 47; experiment: Spectrum: MIC99 on solid medium, agar serial dilution; format: cell-based; design: unit not given here; settings: minimum concentration required to reduce CFUs by 99%, two independent runs
[2] = test system: Bacillus subtilis Marburg; experiment: as above; format: cell-based; design: unit not given here; settings: minimum concentration required to reduce CFUs by 99%, values of two independent runs
[3] = test system: K. pneumoniae; experiment: as above; format: cell-based; design: unit not given here; settings: minimum concentration required to reduce CFUs by 99%, two independent runs
Procedure: Minimum inhibitory concentration to inhibit growth of 99% (MIC99) on solid medium was determined using the agar serial dilution method. Late log phase cultures were plated at ~10^5 colony-forming units (CFU)/mL onto solid medium containing 2-fold serial dilutions of compounds. The MIC99 is defined as the lowest concentration with ≤1% growth.

[4] = test system: M. tuberculosis H37Rv; experiment: Minimum inhibitory concentration (IC90) against fluorescent M. tuberculosis in liquid culture; settings: for IC90: read-out: MTB IC90; for IC90 / MTB IC90: concentration required to inhibit M. tuberculosis growth by 90%, aerobic culture, 5 days, 7H9-OADC-Tw
[5] = test system: Mycobacterium smegmatis mc^2155; experiment: Spectrum: MIC99 on solid medium, agar serial dilution; format: cell-based; design: unit not given here; settings: minimum concentration required to reduce CFUs by 99%, two independent runs
[6] = test system: Escherichia coli DH5α; experiment: as above; format: cell-based; design: unit not given here; settings: minimum concentration required to reduce CFUs by 99%, two independent runs
[7] = test system: Staphylococcus aureus RN4220; experiment: as above; format: cell-based; design: unit not given here; settings: minimum concentration required to reduce CFUs by 99%, values of two independent runs
[8] = test system: HepG2 human liver cells; experiment: Cytotoxicity against HepG2 cells (CellTiter-Glo); format: cell-based; settings: concentration required to inhibit growth of HepG2 cells by 50%, 72 h exposure
Procedure: Cytotoxicity was measured after 72 h of compound exposure at 37°C and 5% CO2 using CellTiter-Glo (Promega).

[9] = test system: Saccharomyces cerevisiae Y187; experiment: Spectrum: MIC99 on solid medium, agar serial dilution; format: cell-based; design: unit not given here; settings: minimum concentration required to reduce CFUs by 99%, values of two independent runs

Compound	melting point [°C]	IC90 [4] [µM]	IC50 ([8]; Homo sapiens, HepG2, 72 h) [µM]	other results
O=c1[nH]c(-c2ccccn2)nc(C(F)(F)F)c1-c1ccc(F)cc1 [Compound 53, 5-(4-Fluorophenyl)-2-(Pyridin-2-yl)-6-(Trifluoromethyl)Pyrimidin-4(3H)-One]	217 to 220	3.8 ± 1.6	11 ± 6.9	MIC99 P. aeruginosa [1]: >100; MIC99 B. subtilis [2]: 6.3, 6.3; MIC99 K. pneumoniae [3]: >100; MIC99 M. smegmatis [5]: >100; MIC99 E. coli [6]: >100; MIC99 S. aureus [7]: 3.1, 3.1
O=c1cc(C(F)(F)F)nc(C2CCCCC2)[nH]1 [Compound 27, 2-Cyclohexyl-6-(Trifluoromethyl)Pyrimidin-4(3H)-One]	198 to 199	> 20	90 ± 17	–
Cc1c(C(F)(F)F)nc(-c2ccccc2)[nH]c1=O [Compound 35, 5-Methyl-2-Phenyl-6-(Trifluoromethyl)Pyrimidin-4(3H)-One]	256 to 259	> 20	> 100	–
COc1cccnc1-c1nc(C(F)(F)F)c(C)c(=O)[nH]1 [Compound 39, 2-(3-Methoxypyridin-2-yl)-5-Methyl-6-(Trifluoromethyl)Pyrimidin-4(3H)-One]	164 to 165	> 20	> 100	–
O=c1[nH]c(-c2ccccn2)nc(C(F)(F)F)c1C1CCCCC1 [Compound 58, 5-Cyclohexyl-2-(Pyridin-2-yl)-6-(Trifluoromethyl)Pyrimidin-4(3H)-One]	220 to 221	4.1 ± 0.28	2.9 ± 0.28	–
Cc1c(C(F)(F)F)nc(-c2ccccc2F)[nH]c1=O [Compound 36, 2-(2-Fluorophenyl)-5-Methyl-6-(Trifluoromethyl)pyrimidin-4(3H)-One]	139 to 141	> 20	> 100	–
Cc1c(C(F)(F)F)nc(-c2ccccn2)[nH]c1=O [Compound 10, 5-Methyl-2-(Pyridin-2-yl)-6-(Trifluoromethyl)Pyrimidin-4(3H)-One]	–	2.9	7.3	MIC99 P. aeruginosa [1]: >100; MIC99 B. subtilis [2]: 12.5, 12.5; MIC99 K. pneumoniae [3]: >100; MIC ([4]; MTB IC90 assay, Figure 1 primary hits and reference drugs in this assay): 2.9 ± 0.47 µM (≈ 0.74 µg/mL); MIC99 M. smegmatis [5]: 25; MIC99 E. coli [6]: >100; MIC99 S. cerevisiae [9]: 6.3 and 12.5; MIC99 S. aureus [7]: 12.5, 12.5; IC50 [8]: 5.4 ± 3.1 µM
Cc1c(C(F)(F)F)nc(-c2ccccc2C(F)(F)F)[nH]c1=O [Compound 42, 5-Methyl-6-(Trifluoromethyl)-2-(2-(Trifluoromethyl)Phenyl)pyrimidin-4(3H)-One]	168 to 170	> 20	> 100	–
O=c1[nH]c(-c2ccccn2)nc(C(F)(F)F)c1Cc1ccccc1 [Compound 52, 5-Benzyl-2-(Pyridin-2-yl)-6-(Trifluoromethyl)Pyrimidin-4(3H)-One]	173 to 174	2.8 ± 0.78	7.3 ± 4.2	–
Cc1c(C(F)(F)F)nc(-c2ncccn2)[nH]c1=O [Compound 41, 5-Methyl-6-(Trifluoromethyl)-[2,2′-Bipyrimidin]-4(3H)-One]	229 to 230	> 20	> 100	–
COc1cccnc1-c1nc(C(F)(F)F)cc(=O)[nH]1 [Compound 19, 2-(3-Methoxypyridin-2-yl)-6-(Trifluoromethyl)Pyrimidin-4(3H)-One]	178 to 179	> 20	> 100	–
Cc1c(-c2ccccc2)nc(-c2ccccn2)[nH]c1=O [Compound 48, 5-Methyl-6-Phenyl-2-(Pyridin-2-yl)Pyrimidin-4(3H)-One]	140 to 141	9.4 ± 0.67	9.7 ± 5.5	–
Cc1cccc(C)c1-c1nc(C(F)(F)F)cc(=O)[nH]1 [Compound 29, 2-(2,6-Dimethylphenyl)-6-(Trifluoromethyl)Pyrimidin-4(3H)-One]	201 to 202	> 20	> 100	–
Cc1c(C(F)(F)F)nc(-c2cccnc2)[nH]c1=O [Compound 22, 5-Methyl-2-(Pyridin-3-yl)-6-(Trifluoromethyl)Pyrimidin-4(3H)-One]	213 to 215	> 20	> 100	–
O=c1cc(C(F)(F)F)nc(-c2cccnc2)[nH]1 [Compound 20, 2-(Pyridin-3-yl)-6-(Trifluoromethyl)Pyrimidin-4(3H)-One]	276 to 277	> 20	> 100	–
Cc1c(C(F)(F)F)nc(-c2ccncc2)[nH]c1=O [Compound 23, 5-Methyl-2-(Pyridin-4-yl)-6-(Trifluoromethyl)Pyrimidin-4(3H)-One]	228 to 230	> 20	> 100	–
O=c1cc(C(F)(F)F)nc(-c2ccccc2)[nH]1 [Compound 24, 2-Phenyl-6-(Trifluoromethyl)Pyrimidin-4(3H)-One]	225 to 227	> 20	> 100	–
O=c1cc(C(F)(F)F)nc(-c2ccccc2F)[nH]1 [Compound 28, 2-(2-Fluorophenyl)-6-(Trifluoromethyl)Pyrimidin-4(3H)-One]	168 to 169	> 20	> 100	–
O=c1cc(C(F)(F)F)nc(-c2ccccc2O)[nH]1 [Compound 31, 2-(2-Hydroxyphenyl)-6-(Trifluoromethyl)Pyrimidin-4(3H)-One]	236 to 238	> 20	79 ± 7.8	–
Cc1cccc(C)c1-c1nc(C(F)(F)F)c(C)c(=O)[nH]1 [Compound 43, 2-(2,6-Dimethylphenyl)-5-Methyl-6-(Trifluoromethyl)Pyrimidin-4(3H)-One]	174 to 175	> 20	> 100	MTB IC90 [4]: no antibacterial activity; HepG2 IC50 [8]: no cytotoxicity
Cc1ccccc1-c1nc(C(F)(F)F)cc(=O)[nH]1 [Compound 30, 2-(o-Tolyl)-6-(Trifluoromethyl)Pyrimidin-4(3H)-One]	155 to 156	> 20	> 100	–
Cc1c(C(F)(F)F)nc(-c2ncccc2O)[nH]c1=O [Compound 33, 2-(3-Hydroxypyridin-2-yl)-5-Methyl-6-(Trifluoromethyl)Pyrimidin-4(3H)-One]	176 to 178	2.5 ± 1.1	3.2 ± 1.6	MIC99 P. aeruginosa [1]: >100; MIC99 K. pneumoniae [3]: >100; MIC99 M. smegmatis [5]: 25; MIC99 E. coli [6]: >100; MIC99 S. cerevisiae [9]: 3.1, 3.1; MIC99 S. aureus [7]: 3.1, 3.1
Cc1c(C(F)(F)F)nc(-c2ccccc2OC(F)(F)F)[nH]c1=O [Compound 44, 5-Methyl-2-(2-(Trifluoromethoxy)Phenyl)-6-(Trifluoromethyl)Pyrimidin-4(3H)-One]	167 to 168	> 20	> 100	–
Cc1c(C(F)(F)F)nc(-c2ccccc2O)[nH]c1=O [Compound 46, 2-(2-Hydroxyphenyl)-5-Methyl-6-(Trifluoromethyl)Pyrimidin-4(3H)-One]	270 to 271	> 20	44 ± 7.8	–
O=c1cc(C(F)(F)F)nc(-c2ncccn2)[nH]1 [Compound 18, 6-(Trifluoromethyl)-[2,2′-Bipyrimidin]-4(3H)-One]	236 to 238	> 20	> 100	MTB IC90 [4]: abolished activity; HepG2 IC50 [8]: abolished activity and cytotoxicity
